# Molecular target: T1, AFS (Malus domestica, UniProt Q84LB2)
# T1 construct: gene AFS1; N-terminal SUMO fusion, pET28a, E. coli BL21(DE3), Ni-NTA purified
# T1 sequence (Q84LB2 1-576): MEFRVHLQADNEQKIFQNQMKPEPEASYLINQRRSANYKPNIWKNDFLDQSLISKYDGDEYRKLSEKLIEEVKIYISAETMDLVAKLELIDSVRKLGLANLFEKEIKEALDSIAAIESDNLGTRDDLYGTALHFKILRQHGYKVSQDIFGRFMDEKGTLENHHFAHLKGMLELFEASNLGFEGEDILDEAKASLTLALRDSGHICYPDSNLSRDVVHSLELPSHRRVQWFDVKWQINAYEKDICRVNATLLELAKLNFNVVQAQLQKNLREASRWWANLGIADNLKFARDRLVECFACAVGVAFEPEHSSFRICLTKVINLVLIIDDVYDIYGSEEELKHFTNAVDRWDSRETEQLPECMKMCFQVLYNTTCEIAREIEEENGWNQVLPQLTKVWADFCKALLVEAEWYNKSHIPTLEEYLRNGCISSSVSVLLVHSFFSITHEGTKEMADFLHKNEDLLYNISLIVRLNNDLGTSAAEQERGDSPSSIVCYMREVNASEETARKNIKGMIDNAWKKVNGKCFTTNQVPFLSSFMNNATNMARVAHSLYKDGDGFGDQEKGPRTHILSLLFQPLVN
# Test: GC-MS of alpha-farnesene; FPP formed in situ from IPP by IDI and ISPA
# Type: biochemical
# Conditions: 100 mM Hepes pH 7.5, 2 mM IPP, room temperature
smiles,measurement,value
CC(C)=CCC/C(C)=C/CC/C(C)=C/COP(=O)(O)OP(=O)(O)O [farnesyl pyrophosphate],GC-MS of alpha-farnesene; FPP formed in situ from IPP by IDI and ISPA,"the yield of AFS was greater than that of MdF, with an α-farnesene yield"

# — PMC11286291, “A Light-Driven In Vitro Enzymatic Biosystem for the Synthesis of α-Farnesene from Methanol” (Biodesign Research, 2024)
